pIC50: −log10 of the molar value.

A short description of series [1]: Drug uptake in imiquimod-induced C57BL/6 mouse model of psoriasis at 10 mg/kg, po dosed via gavage twice daily and measured after 8 hrs by LC-MS analysis. The series is classed as ADME, organism-based. The conditions noted are these: in vivo, read-out: Drug uptake.
Series [2] is filed under the species Homo sapiens. The experiment in a line: Selectivity index, ratio of IC50 for N-terminal His6-tagged human full length recombinant LCK expressed in baculovirus infected Sf21 cells to IC50 for IRAK4 (unknown origin).
Series [3] in a line: Half life in mouse at 2 mg/kg, iv administered as infusion or 5 mg/kg, po via gavage measured up to 24 hrs by LC-MS analysis. Type of series: ADME, organism-based. The conditions noted are these: in vivo.
The nature of series [4]: Drug uptake in imiquimod-induced C57BL/6 mouse model of psoriasis at 3 mg/kg, po dosed via gavage twice daily and measured after 8 hrs by LC-MS analysis. The series is classed as ADME, organism-based. Conditions: in vivo, read-out: Drug uptake.
Series [5] concerns the target TRAF2 and NCK-interacting protein kinase (Homo sapiens, UniProt Q9UKE5). The series can be described thus: Inhibition of human wild type partial length TNIK (D4-K311 residues) expressed in bacterial expression system.
The target in series [6] is Tyrosine-protein kinase Lck (Homo sapiens, UniProt P06239). The series can be described thus: Inhibition of N-terminal His6-tagged human full length recombinant LCK expressed in baculovirus infected Sf21 cells.
The species entered for series [7] is Mus musculus. The experiment in a line: animal or person. The conditions noted are these: C57BL/6, po, 144 h, read-out: INH.
In series [8] the target is T1, Interleukin-1 receptor-associated kinase 3 (Homo sapiens, UniProt Q9Y616).
T1 sequence (Q9Y616 whole entry): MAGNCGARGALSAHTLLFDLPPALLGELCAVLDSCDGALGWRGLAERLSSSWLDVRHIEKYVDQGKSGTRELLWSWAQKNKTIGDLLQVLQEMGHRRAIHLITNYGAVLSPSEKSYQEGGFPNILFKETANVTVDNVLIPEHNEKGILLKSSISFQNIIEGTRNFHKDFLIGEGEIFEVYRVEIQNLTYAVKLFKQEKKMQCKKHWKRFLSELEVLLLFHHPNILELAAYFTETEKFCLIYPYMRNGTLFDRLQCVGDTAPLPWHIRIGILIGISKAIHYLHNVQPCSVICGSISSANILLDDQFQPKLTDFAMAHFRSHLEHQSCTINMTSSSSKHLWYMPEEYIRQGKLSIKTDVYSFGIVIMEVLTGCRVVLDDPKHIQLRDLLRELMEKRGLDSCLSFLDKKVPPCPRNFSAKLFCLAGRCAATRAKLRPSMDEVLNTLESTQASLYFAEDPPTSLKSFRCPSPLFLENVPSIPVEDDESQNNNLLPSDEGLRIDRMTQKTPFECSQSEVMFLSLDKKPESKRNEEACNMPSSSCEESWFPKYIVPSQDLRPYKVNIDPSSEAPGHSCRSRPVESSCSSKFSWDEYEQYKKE
The series can be described thus: Inhibition of human wild type partial length IRAK3 (147 to 596 residues) expressed in bacterial expression system.

In series [9] the target is T2, Interleukin-1 receptor-associated kinase 4 (Mus musculus) (UniProt Q8R4K2).
T2 sequence (whole entry): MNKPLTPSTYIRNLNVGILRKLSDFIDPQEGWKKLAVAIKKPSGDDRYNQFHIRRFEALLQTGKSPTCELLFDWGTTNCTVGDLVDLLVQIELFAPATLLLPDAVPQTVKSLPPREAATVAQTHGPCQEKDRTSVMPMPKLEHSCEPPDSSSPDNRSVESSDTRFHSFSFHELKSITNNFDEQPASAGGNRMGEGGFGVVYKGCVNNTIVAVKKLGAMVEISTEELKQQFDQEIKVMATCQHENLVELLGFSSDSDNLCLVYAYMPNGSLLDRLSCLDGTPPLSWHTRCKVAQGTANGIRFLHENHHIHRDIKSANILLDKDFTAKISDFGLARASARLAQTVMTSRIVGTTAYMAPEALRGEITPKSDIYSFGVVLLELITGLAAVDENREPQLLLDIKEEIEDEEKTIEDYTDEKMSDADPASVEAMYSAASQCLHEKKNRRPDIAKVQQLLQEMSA
The experiment in a line: In vivo Inhibition of IRAK4 in LTA-treated BALB/c mouse assessed as suppression of IL-6 level in serum at 0.3 mg/kg by ELISA relative to control. Type of series: functional, organism-based. Background: An ELISA detects its analyte on a solid surface through an enzyme-linked reagent.

Series [10] deals with T3, Interleukin-1 receptor-associated kinase 4 (Homo sapiens, UniProt Q9NWZ3).
T3 sequence (Q9NWZ3 whole entry): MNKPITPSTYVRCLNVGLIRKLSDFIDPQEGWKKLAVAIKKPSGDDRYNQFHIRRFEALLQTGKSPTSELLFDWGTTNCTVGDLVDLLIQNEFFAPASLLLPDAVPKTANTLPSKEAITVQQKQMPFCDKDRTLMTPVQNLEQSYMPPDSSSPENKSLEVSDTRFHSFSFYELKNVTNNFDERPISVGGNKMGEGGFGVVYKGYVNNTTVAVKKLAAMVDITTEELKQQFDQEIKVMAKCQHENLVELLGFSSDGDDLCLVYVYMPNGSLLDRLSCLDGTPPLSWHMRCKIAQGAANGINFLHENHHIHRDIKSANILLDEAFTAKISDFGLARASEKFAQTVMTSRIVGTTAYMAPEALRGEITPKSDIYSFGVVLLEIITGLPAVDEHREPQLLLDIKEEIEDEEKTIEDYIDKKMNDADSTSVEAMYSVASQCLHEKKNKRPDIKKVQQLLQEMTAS
The experiment in a line: Inhibition of IRAK4 in human PBMC assessed as inhibition of LTA-induced IL-6 production preincubated for 30 mins followed by LTA-stimulation and measured after 5 hrs by ELISA. Type of series: cell-based.

Series [11] in a line: Drug uptake in imiquimod-induced C57BL/6 mouse model of psoriasis at 3 mg/kg, po dosed via gavage twice daily and measured after 2 hrs by LC-MS analysis. The series is classed as ADME, organism-based. The conditions noted are these: in vivo, read-out: Drug uptake.
A short description of series [12]: Volume of distribution at steady state in mouse at 2 mg/kg, iv administered as infusion or 5 mg/kg, po via gavage measured up to 24 hrs by LC-MS analysis. The series is classed as ADME, organism-based. Conditions: in vivo, read-out: Vdss.
Series [13] concerns the target T2, Interleukin-1 receptor-associated kinase 4 (Mus musculus). The experiment in a line: In vivo Inhibition of IRAK4 in LTA-treated BALB/c mouse assessed as suppression of IL-6 level in serum at 1 mg/kg by ELISA relative to control. Type of series: functional, organism-based.
A short description of series [14]: Stability in human liver microsomes assessed as parent compound remaining. The series is classed as ADME, Microsome. For orientation: Liver microsomes are vesicles of endoplasmic reticulum, rich in cytochrome P450 enzymes.
Series [15] is filed under the species Mus musculus. The series can be described thus: animal or person. The conditions noted are these: C57BL/6, po, 144 h, read-out: INH. The source holds these as a separate data set.
Series [16] has as its system Mus musculus. The series can be described thus: Protection against po dosed imiquimod-induced psoriasis in C57BL/6 mouse assessed as reduction in clinical signs of psoriasis administered via gavage twice daily and measured on day 6. Type of series: functional, organism-based.
A short description of series [17]: Stability in mouse liver microsomes assessed as parent compound remaining measured after 10 mins. Type of series: ADME, Microsome. Conditions: read-out: Stability.
Series [18] in a line: AUC in mouse at 5 mg/kg, po via gavage measured up to 24 hrs by LC-MS analysis. The series is classed as ADME, organism-based. Details: time < 24 hr, dose 5 mg/kg, route oral. Conditions: in vivo.
The species entered for series [19] is Mus musculus. The series can be described thus: animal or person. The conditions noted are these: C57BL/6, po, 144 h, read-out: INH. This is another data set of the same source.
For series [20], the species on record is Homo sapiens. The experiment in a line: Selectivity index, ratio of IC50 for recombinant N-terminal GST-tagged human cKit (544 to end residues) expressed in baculovirus infected Sf21 cells to IC50 for IRAK4 (unknown origin).
Series [21] is filed under the species Mus musculus. The series can be described thus: animal or person. The conditions noted are these: C57BL/6, po, 144 h, read-out: INH. This is another data set of the same source.

Chain of TRAF2 and NCK-interacting protein kinase (Q9UKE5 whole entry, the tested form may be a part): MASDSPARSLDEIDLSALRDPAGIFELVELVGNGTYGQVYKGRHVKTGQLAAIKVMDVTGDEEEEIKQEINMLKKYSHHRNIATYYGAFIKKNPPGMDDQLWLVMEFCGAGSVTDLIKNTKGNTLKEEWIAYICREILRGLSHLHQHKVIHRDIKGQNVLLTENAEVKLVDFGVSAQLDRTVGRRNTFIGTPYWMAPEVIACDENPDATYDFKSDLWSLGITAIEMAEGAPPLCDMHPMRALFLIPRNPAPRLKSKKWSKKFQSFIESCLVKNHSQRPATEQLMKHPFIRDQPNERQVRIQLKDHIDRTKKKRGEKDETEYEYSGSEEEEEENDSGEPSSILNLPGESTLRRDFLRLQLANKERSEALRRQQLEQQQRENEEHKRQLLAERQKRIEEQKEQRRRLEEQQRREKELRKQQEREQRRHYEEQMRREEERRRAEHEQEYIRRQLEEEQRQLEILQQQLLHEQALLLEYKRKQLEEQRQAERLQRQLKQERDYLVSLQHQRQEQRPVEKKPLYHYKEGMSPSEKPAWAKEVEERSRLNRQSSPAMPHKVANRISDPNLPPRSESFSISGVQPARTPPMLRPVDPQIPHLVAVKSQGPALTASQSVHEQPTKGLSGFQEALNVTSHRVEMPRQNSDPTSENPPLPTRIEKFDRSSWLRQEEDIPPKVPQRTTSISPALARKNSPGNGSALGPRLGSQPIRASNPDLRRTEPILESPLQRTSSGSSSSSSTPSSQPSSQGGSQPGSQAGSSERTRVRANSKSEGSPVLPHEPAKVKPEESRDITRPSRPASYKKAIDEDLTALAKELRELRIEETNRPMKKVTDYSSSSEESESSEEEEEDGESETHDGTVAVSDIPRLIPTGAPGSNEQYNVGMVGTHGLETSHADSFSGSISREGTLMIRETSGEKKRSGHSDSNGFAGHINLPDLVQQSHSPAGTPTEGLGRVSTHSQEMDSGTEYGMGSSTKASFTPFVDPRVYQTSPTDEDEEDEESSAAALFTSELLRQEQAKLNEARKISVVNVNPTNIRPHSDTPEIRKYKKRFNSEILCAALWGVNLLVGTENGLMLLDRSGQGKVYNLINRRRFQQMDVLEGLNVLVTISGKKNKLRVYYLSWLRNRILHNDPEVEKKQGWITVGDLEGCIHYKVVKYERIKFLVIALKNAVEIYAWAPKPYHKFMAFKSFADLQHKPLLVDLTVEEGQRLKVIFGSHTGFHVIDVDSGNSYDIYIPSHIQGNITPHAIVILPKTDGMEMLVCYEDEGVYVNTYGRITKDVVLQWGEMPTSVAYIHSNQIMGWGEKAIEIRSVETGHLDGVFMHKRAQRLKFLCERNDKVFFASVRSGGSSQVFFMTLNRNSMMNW
Chain of Tyrosine-protein kinase Lck (P06239 whole entry): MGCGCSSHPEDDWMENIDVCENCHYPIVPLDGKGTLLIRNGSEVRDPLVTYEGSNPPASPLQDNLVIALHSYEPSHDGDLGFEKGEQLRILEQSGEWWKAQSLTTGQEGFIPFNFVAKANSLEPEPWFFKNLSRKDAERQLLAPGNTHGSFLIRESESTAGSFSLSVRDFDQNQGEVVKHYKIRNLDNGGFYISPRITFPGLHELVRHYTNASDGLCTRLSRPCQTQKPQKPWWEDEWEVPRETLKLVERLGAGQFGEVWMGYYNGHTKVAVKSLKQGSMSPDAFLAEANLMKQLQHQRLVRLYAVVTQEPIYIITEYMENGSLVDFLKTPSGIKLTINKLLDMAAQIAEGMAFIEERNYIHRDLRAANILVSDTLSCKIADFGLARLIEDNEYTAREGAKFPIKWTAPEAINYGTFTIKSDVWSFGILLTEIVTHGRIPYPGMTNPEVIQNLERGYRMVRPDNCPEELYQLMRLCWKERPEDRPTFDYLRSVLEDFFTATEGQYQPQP

As a reminder, the half-life is how long it takes for the measured level to halve. Low readings indicate fast loss, high ones slow loss. The term pIC50 denotes the negative decadic logarithm of the IC50, by convention in mol/L. What is called inhibition is the change of the read-out against control, counted positive when it falls. Broadly, the AUC is the area under the concentration-time curve, a measure of exposure. Take `CC(C)Nc1cc(Nc2nc3ccnn3cc2F)ncc1C(=O)NC[C@@H](F)C(C)(C)O`: the results for the concentration at 8 h in series [1] and in series [4] were 494 nM and 31 nM, respectively. Further, the Ratio IC50 in the series filed under Homo sapiens [2] and in the series filed under Homo sapiens [20] was greater than 590 throughout. In series [3], this compound had a half-life of 1.4 h. In addition, the pIC50 in [5] is 6.89; in [6] it was less than 5.70; in series [8], 6.12; in [10] it was 6.43. The values for the inhibition in vivo at 3 mg/kg in the series listed under Mus musculus [7] and in the series filed under Mus musculus [19] were 30% and 41%, respectively. Further, the inhibition in series [9] stood at 72%; in series [13], 68%. In addition, the concentration at 2 h in [11] was 1950 nM. Further, the Vd in series [12] was 2 L/kg. The Stability in [14] worked out at 93%. In addition, the inhibition in vivo at 10 mg/kg is 64% in the series listed under Mus musculus [15] and 43% in the series listed under Mus musculus [21]. The Activity entry in the series on Mus musculus [16] was “Dose-dependent effect”. Further, in series [17], the remaining at 10 min was determined as 89%. The same compound returned an AUC at 24 h in series [18] of 2.4 µM·h.

For the origin of these results see ChEMBL document CHEMBL4622963, “Optimization of Nicotinamides as Potent and Selective IRAK4 Inhibitors with Efficacy in a Murine Model of Psoriasis” (ACS Med Chem Lett, 2020).
